Among the data in patent US20260176262A1, “KRAS INHIBITORS, PREPARATION METHOD THEREFOR, AND PHARMACEUTICAL USE THEREOF” (ABBISKO THERAPEUTICS CO., LTD., priority 2021, published 2026) are IC50 values, retold here.

Molecules are shown by their SMILES. Like-named read-outs stand apart in the source and are kept apart here. Where only a bound is given, the exact number is not on record here.

Test [1] addresses KRAS^G12D/cRAF (Homo sapiens, UniProt P01116, G12D). Kind of test: KRAS G12D/cRAF binding test (Alphalisa). The settings on record: His-tagged KRAS G12D + GMPPNP, GST-tagged cRAF. Here is the method:
The compound was dissolved in 100% DMSO at a starting concentration of 5 mM and diluted in DMSO with a 3-fold serial dilution method for a total of 8 concentration points. 1 μL of the compound or DMSO at each concentration point was added into 99 μL of the experimental buffer to obtain 10× stock solution.
• 1) 4 μL of the working mixture solution of His-tagged KRAS^G12D and GMPPNP was added to the 384-well plate. • 2) The 10× compound stock solution or 1% DMSO was added to the 384-well plate. • 3) The plate was centrifuged at 1000 rpm for 1 minute. • 4) 4 μL of GST-tagged cRAF solution was added to the 384-well plate. • 5) The plate was centrifuged at 1000 rpm for 1 minute. • 6) The plate was incubated at room temperature for 15 minutes. • 7) 10 μL of detection working solution was added to the 384-well plate. • 8) The plate was centrifuged at 1000 rpm for 1 minute. • 9) The plate was incubated at room temperature for 60 minutes. • 10) The 384-well plate was placed into Envision and assay data was obtained.
(§1) The ratio for each compound concentration was calculated from the signal of the DMSO control group contained in each assay plate and the Alphalisa signal in each compound well. The compound concentration required for inhibitory concentration at 50% (IC50) was determined using a four-parameter logarithmic dose-response equation by testing the concentration of the compound and the value of the ratio. The endpoint value (IC50) of the reference compound was assessed in each experiment as a quality control measure. If the endpoint value is within three times the expected value, the experiment may be considered acceptable.
In general terms: Alpha assays give light when donor and acceptor beads are brought close together.

For test [2], the system named is AGS cell. Kind of test: Anti-proliferative 2D CTG assay, AGS cells. It counts as cell-based. The following applies: AGS cells, incubated 3 days, CTG, read-out: AGS cell IC50. Here is the method:
When the cell confluence was about 80%, the cells were isolated with 0.25% trypsin. Isolated cells were resuspended in 5 mL fresh cell culture medium and centrifuged for cell collection. Meanwhile, the number of cells was also calculated. The cells were then suspended in culture medium of medium concentration. The cells were placed into a 96-well plate with 1000 cells/well for AGS and 1000 cells/well for GP2D. The 96-well plate was placed in an incubator at 37° C. and incubated overnight.
1.2 Day 1 Compound Treatment From the 10 mM stock solution, with a ratio of 1:5, 10-point serial dilutions were performed. The 10× medium containing the compound was transferred into corresponding wells of the 96 wells. The final maximum compound concentration was […] and the final DMSO concentration was 0.1%. The 96-well plate was placed in a 37° C. incubator, the AGS cells were incubated for 3 days, and the GP2D cells were incubated for 4 days.
50 μL/well of detection reagent (CTG) was added to the AGS cells, and the signal was read in an Envision machine.
as §1, with “The percent inhibition (%) at” for “The ratio for”, “signal in” for “signal of”, “the HPE and ZPE” for “the DMSO”, “control wells and the fluorescence signal in the individual compound wells included” for “control group contained”, “assay plate. […]” for “assay plate and the Alphalisa signal in each compound well.”, “the inhibition percentage value.” for “the value of the ratio.”

Where [3] appears, read: Homo sapiens, 72 h, class symbols.
[4] abbreviates: Homo sapiens, 72 h, numeric values.

KRAS^G12D/cRAF, sequence (P01116 1-188 isoform P01116-2 G12D): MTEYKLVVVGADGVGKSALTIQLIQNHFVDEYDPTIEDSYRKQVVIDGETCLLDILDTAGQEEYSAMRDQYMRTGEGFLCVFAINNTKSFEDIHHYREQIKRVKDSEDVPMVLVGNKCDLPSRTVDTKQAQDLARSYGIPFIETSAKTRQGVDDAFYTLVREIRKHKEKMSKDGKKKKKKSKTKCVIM

By IC50 is commonly meant the point on the concentration scale where inhibition reaches its midpoint. Turning to `[2H]C([2H])([2H])OC[C@]12CC[C@H](CN(c3nc(OC[C@@]45CCCN4C[C@H](F)C5)nc4c(F)c(-c5cc(O)cc6ccc(F)c(C#C)c56)nc(OCC)c34)C1)N2` [Example 37, 4-(5-ethoxy-8-fluoro-2-(((2R, 7aS)-2-fluorotetrahydro-1H-pyrrolizin-7a(5H)-yl)methoxy)-4-((1S,5R)-1-((methoxy-d3)methyl)-3,8-diazabicyclo [3.2.1]octan-3-yl)pyrido [4,3-d]pyrimidin-7-yl)-5-ethynyl-6-fluoronaphthalen-2-ol], the half-maximal inhibitory concentration (IC50) in test [1] (class symbols) was 50 to 500 nM; in test [2] (setting [3]) it was less than 50 nM.

Turning to `[2H]C([2H])([2H])OCC12CCC(CN(c3nc(OC[C@@]45CCCN4C[C@H](F)C5)nc4c(F)c(-c5cc(O)cc6ccc(F)c(C#C)c56)nc(C)c34)C1)N2` (stereo partly drawn) [Example 39, 5-ethynyl-6-fluoro-4-(8-fluoro-2-(((2R,7aS)-2-fluorotetrahydro-1H-pyrrolizin-7a(5H)-yl)methoxy)-4-(1-((methoxy-d3)methyl)-3,8-diazabicyclo[3.2.1]octan-3-yl)-5-methylpyrido[4,3-d]pyrimidin-7-yl)naphthalen-2-ol], the IC50 is 50 to 500 nM in test [1] (class symbols) and less than 50 nM in test [2] (setting [3]).

On to `[2H]C([2H])([2H])C12CCC(CN(c3nc(OC[C@@]45CCCN4C[C@H](F)C5)nc4c(F)c(-c5cc(O)cc6ccc(F)c(C#C)c56)nc(C)c34)C1)N2` (stereo partly drawn) [Example 40, 5-ethynyl-6-fluoro-4-(8-fluoro-2-(((2R,7aS)-2-fluorotetrahydro-1H-pyrrolizin-7a(5H)-yl)methoxy)-5-methyl-4-(1-(methyl-d3)-3,8-diazabicyclo[3.2.1]octan-3-yl)pyrido[4,3-d]pyrimidin-7-yl)naphthalen-2-ol], for which the concentration for half-maximal inhibition (IC50) in test [1] (class symbols) and in test [2] (setting [3]) was less than 50 nM in each case.

Take `C#Cc1c(F)ccc2cc(O)cc(-c3ncc4c(N5C[C@H]6CC[C@@](C)(C5)N6)nc(OC[C@@]56CCCN5C[C@H](F)C6)nc4c3F)c12` [Example 44]: the half-inhibitory concentration (IC50) in test [1] (numeric values) was 19 nM; in test [2] (numeric values), 6.1 nM.

For `C#Cc1c(F)ccc2cc(O)cc(-c3ncc4c(N5C[C@@H]6CC[C@](COC)(C5)N6)nc(OC[C@@]56CCCN5C[C@H](F)C6)nc4c3F)c12` [Example 46, 5-ethynyl-6-fluoro-4-(8-fluoro-2-(((2R,7aS)-2-fluorotetrahydro-1H-pyrrolizin-7a(5H)-yl)methoxy)-4-((1R,5S)-1-(methoxymethyl)-3,8-diazabicyclo[3.2.1]octan-3-yl)pyrido[4,3-d]pyrimidin-7-yl)naphthalen-2-ol], the IC50 in test [1] (class symbols) is 50 to 500 nM; in test [2] (setting [3]), less than 50 nM.

Consider `[2H]C([2H])([2H])OC[C@]12CC[C@]([2H])(CN(c3nc(OC[C@@]45CCCN4C[C@H](F)C5)nc4c(F)c(-c5cc(O)cc6ccc(F)c(C#C)c56)ncc34)C1)N2` [Example 47, 5-ethynyl-6-fluoro-4-(8-fluoro-2-(((2R,7aS)-2-fluorotetrahydro-1H-pyrrolizin-7a(5H)-yl)methoxy)-4-((1S,5R)-1-((methoxy-d3)methyl)-3,8-diazabicyclo[3.2.1]octan-3-yl-5-d)pyrido[4,3-d]pyrimidin-7-yl)naphthalen-2-ol], for which the half-inhibitory concentration (IC50) in test [1] (class symbols) and in test [2] (setting [3]) was 50 to 500 nM each time.

On to `[2H]C([2H])([2H])OC[C@@]12CC[C@@]([2H])(CN(c3nc(OC[C@@]45CCCN4C[C@H](F)C5)nc4c(F)c(-c5cc(O)cc6ccc(F)c(C#C)c56)ncc34)C1)N2` [Example 48, 5-ethynyl-6-fluoro-4-(8-fluoro-2-(((2R,7aS)-2-fluorotetrahydro-1H-pyrrolizin-7a(5H)-yl)methoxy)-4-((1R,5S)-1-((methoxy-d3)methyl)-3,8-diazabicyclo[3.2.1]octan-3-yl-5-d)pyrido[4,3-d]pyrimidin-7-yl)naphthalen-2-ol], for which the IC50 in test [1] (class symbols) was greater than 500 nM; in test [2] (setting [3]), less than 50 nM.

`[2H]C([2H])([2H])OC[C@]12CC[C@H](CN(c3nc(OC[C@@]45CCCN4C[C@H](F)C5)nc4c(F)c(-c5cc(O)cc6ccc(F)c(C#C)c56)nc(OC)c34)C1)N2` [Example 49, 5-ethynyl-6-fluoro-4-(8-fluoro-2-(((2R,7aS)-2-fluorotetrahydro-1H-pyrrolizin-7a(5H)-yl)methoxy)-5-methoxy-4-((1S,5R)-1-((methoxy-d3)methyl)-3,8-diazabicyclo[3.2.1]octan-3-yl)pyrido[4,3-d]pyrimidin-7-yl)naphthalen-2-ol]: the figures for the IC50 in test [1] (numeric values) and in test [2] (setting [4]) were 262 nM and 288 nM, respectively.

Consider `[2H]C([2H])([2H])OC[C@@]12CC[C@@H](CN(c3nc(OC[C@@]45CCCN4C[C@H](F)C5)nc4c(F)c(-c5cc(O)cc6ccc(F)c(C#C)c56)nc(OCC)c34)C1)N2` [Example 52, 4-(5-ethoxy-8-fluoro-2-(((2R,7aS)-2-fluorotetrahydro-1H-pyrrolizin-7a(5H)-yl)methoxy)-4-((1R,5S)-1-((methoxy-d3)methyl)-3,8-diazabicyclo[3.2.1]octan-3-yl)pyrido[4,3-d]pyrimidin-7-yl)-5-ethynyl-6-fluoronaphthalen-2-ol], for which the IC50 in test [1] (class symbols) was 50 to 500 nM; in test [2] (setting [3]) it was less than 50 nM.

For the compound `C#Cc1c(F)ccc2cc(O)cc(-c3ncc4c(N5C[C@H]6CC[C@@](CC)(C5)N6)nc(OC[C@@]56CCCN5C[C@H](F)C6)nc4c3F)c12` [Example 53, 4-(4-((1S,5R)-1-ethyl-3,8-diazabicyclo[3.2.1]octan-3-yl)-8-fluoro-2-(((2R,7aS)-2-fluorotetrahydro-1H-pyrrolizin-7a(5H)-yl)methoxy)pyrido[4,3-d]pyrimidin-7-yl)-5-eth ynyl-6-fluoronaphthalen-2-ol], the 50% inhibitory concentration (IC50) in test [1] (numeric values) stood at 221 nM; in test [2] (setting [4]), 708 nM.

Turning to `C#Cc1c(F)ccc2cc(O)cc(-c3ncc4c(N5C[C@@H]6CC[C@](C=C)(C5)N6)nc(OC[C@@]56CCCN5C[C@H](F)C6)nc4c3F)c12` [Example 58, 5-ethynyl-6-fluoro-4-(8-fluoro-2-(((2R,7aS)-2-fluorotetrahydro-1H-pyrrolizin-7a(5H)-yl)methoxy)-4-((1S,5S)-1-vinyl-3,8-diazabicyclo[3.2.1]octan-3-yl)pyrido[4,3-d]pyrimidin-7-yl)naphthalen-2-ol], the IC50 in test [1] (numeric values) stood at 47 nM; in test [2] (setting [4]), 127 nM.

For the compound `C#Cc1c(F)ccc2cc(O)cc(-c3ncc4c(N5C[C@H]6CC[C@@](/C=C\F)(C5)N6)nc(OC[C@@]56CCCN5C[C@H](F)C6)nc4c3F)c12` [Example 59, 5-ethynyl-6-fluoro-4-(8-fluoro-2-(((2R,7aS)-2-fluorotetrahydro-1H-pyrrolizin-7a(5H)-yl)methoxy)-4-((1R,5R)-1-((Z)-2-fluorovinyl)-3,8-diazabicyclo[3.2.1]octan-3-yl)pyrido[4,3-d]pyrimidin-7-yl)naphthalen-2-ol], the results for the IC50 in test [1] (numeric values) and in test [2] (setting [4]) were 15 nM and 13 nM, respectively.

As to `C#Cc1c(F)ccc2cc(O)cc(-c3ncc4c(N5C[C@@H]6CC[C@](/C=C\F)(C5)N6)nc(OC[C@@]56CCCN5C[C@H](F)C6)nc4c3F)c12` [Example 60, 5-ethynyl-6-fluoro-4-(8-fluoro-2-(((2R,7aS)-2-fluorotetrahydro-1H-pyrrolizin-7a(5H)-yl)methoxy)-4-((1S,5S)-1-((Z)-2-fluorovinyl)-3,8-diazabicyclo[3.2.1]octan-3-yl)pyrido[4,3-d]pyrimidin-7-yl)naphthalen-2-ol], the half-inhibitory concentration (IC50) in test [1] (numeric values) is 25 nM; in test [2] (setting [4]), 79 nM.

With `C#Cc1c(F)ccc2cc(O)cc(-c3ncc4c(N5C[C@H]6CC[C@@](/C=C/F)(C5)N6)nc(OC[C@@]56CCCN5C[C@H](F)C6)nc4c3F)c12` [Example 61, 5-ethynyl-6-fluoro-4-(8-fluoro-2-(((2R,7aS)-2-fluorotetrahydro-1H-pyrrolizin-7a(5H)-yl)methoxy)-4-((1R,5R)-1-((E)-2-fluorovinyl)-3,8-diazabicyclo[3.2.1]octan-3-yl)pyrido[4,3-d]pyrimidin-7-yl)naphthalen-2-ol], the 50% inhibitory concentration (IC50) turned out to be 876 nM in test [1] (numeric values) and 816 nM in test [2] (setting [4]).
